Measurements: patent publication US20260294964A1, “PHARMACEUTICALS CONTAINING CHELATORS WITH STRONG ZN IONS-HOLDING FEATURE FOR THE TREATMENT OF SYMPTOMS AND DISEASES CAUSED BY MICROORGANISMS/DISEASES CAUSED BY TOXINS OR NEUROTOXINS/CANCER/SEVERAL SYNDROMES” (priority 2023, published 2026)
“Also recorded” adds a separate entry of the source. Like-named read-outs stand apart in the source and are kept apart here.

Experiments:
[1] = Metallic Cu suspension test with 1% Na ascorbate (Cu ion complex formation); assay type: physicochemical; settings: 0.1% CuCl2, alone or with several percent of chelator; excess 1% Na ascorbate
[2] = system: Boraras Micros fish; settings: for time to death of fish: 300 ppm EDTA disodium, 800 ppm EDTA Na; for death of fish: 1000 ppm Na2 EDTA / 0.5 ppm CuCl2 / [0.3 ppm CuCl2+20 ppm ZnCl2]; for toxicity / safety to host cells: in words, from fish experiments
[3] = Metallic Cu suspension test with 1% Na ascorbate (Cu ion complex formation); assay type: physicochemical; settings: with 0.1% CuCl2; excess 1% Na ascorbate
From the text: In an environment containing water in the body of organisms/host bodies (host is animal/human) such as in blood/tissue fluid/alveolar fluid/intracellular fluid . . . ) in conditions where the body is depleted of chelators with [Zn ions/other transition metal ions]-holding (such as the amount of chelators with [Zn ions/other transition metal ions]-holding remains is not significant in the patient's body), Cu ions will attach to [Fe ions in metalloproteins of [host cells/red blood cells/alveolar cells], causing these cells to lose the ability to exchange O2, causing symptoms of acute respiratory failure (not due to lung infection), and this symptom is very dangerous because it can quickly lead to death. Among the bond forces between Cu ions and other metal ions, the bond force of the Cu ion-Fe ion complex is the strongest, can recognize the existence of Cu ion-ion Fe ion complex/Cu ion-Zn ion complex/Cu ion-Mg ion complex/Cu ion-Ca ion complex, and can recognize Cu ion-other metal ion bonds, in which the Cu ion-Fe ion bond is the bond type with the highest magnitude through experiments conducted in water environment (water environment without chelators with [Zn ions/other transition metal ions]-holding) is the environment that simulates the blood environment/alveolar fluid environment of a host with the depletion of these chelators), these experiments were performed by adding an excess amount of 1% Na ascorbate solution to the test tube containing the solution with [0.1 % CuCl2+greater than 0.2% FeCl3]/the test tube containing the solution containing [0.1 % CuCl2+greater than 0.6% ZnCl2]/the test tube containing the solution containing [0.1 % CuCl2+greater than 0.63% MgCl2]/the test tube containing the solution conatining [0 .

[4] = system: microorganisms that decompose organic matter (bacteria/fungi); test: Culture of microorganisms that decompose organic matter; assay type: cell-based; settings: for concentration in culture medium at which microorganisms multiply strongly: microorganisms that decompose organic matter (bacteria/fungi)
[5] = system: pathogenic microorganisms; test: Inhibition/killing of pathogenic microorganisms in water with Boraras Micros fish infected from dead fish; assay type: in vivo
[6] = system: symptoms such as sore throat/cough/headache; test: Symptoms generated by ZnCl2 in the throat and their relief; assay type: in vivo, human; settings: for disappearance of ZnCl2-induced symptoms: few ml of 10% solution, oral
[7] = assay type: physicochemical, animal/human blood; settings: for volume that completely dissolves Zn-blood complex suspension: suspension from 1.4 ml 0.1% ZnCl2 in 100 ml 0.9% NaCl with 1% blood; for amount needed to completely dissolve Zn-blood complex suspension, compared with lysine phosphate/lysine chloride/arginine phosphate/arginine chloride: suspension with 2 ppm ZnCl2
[8] = system: mice; assay type: in vivo, mouse; settings: fed rat poison pills, normal water (control)
[9] = system: Boraras Micros fish; test: Protection of Boraras Micros fish from CuCl2 by chelators; assay type: in vivo; settings: 0.4 ppm CuCl2 + a few ppm to more than 10 ppm of chelator
[10] = system: avian influenza; design: species or system chicken; settings: in vivo
[11] = system: sweet taste on the tongue; test: Loss and recovery of sweet taste after Zn gluconate; assay type: in vivo, human; settings: for recovery of sweet taste: 5% arginine glutamate / 0.5% triethylenetetramine glutamate, 10 seconds
[12] = Voltage of metallic Zn-metallic Cu electrode pair in test tube; assay type: physicochemical; settings: 0.9% NaCl+0.2 ppm CuCl2+0.4 ppm ZnCl2+0.6 FeCl3
[13] = 10 ppm Ampicillin / 20 ppm Bactrim / 100 ppm triethylenetetramine diethylenetriaminepentaacetate / 300 Mg EDTA / 600 ppm Ca EDTA / combinations as in label
[14] = 20 ppm Ampicillin / 40 ppm Bactrim

N=C(N)NCCC[C@H](N)C(=O)O [arginine, reference compound]
appearance of metallic Cu suspension [1]: metallic Cu suspension will not appear

O=C([O-])CN(CCN(CC(=O)[O-])CC(=O)O)CC(=O)O.[Na+].[Na+] [EDTA disodium]
time to death of fish [2]: less than 24 hours
death of fish [2]: died within a few hours
death of fish ([2]; listed as 2 Na EDTA): died in a few hours
toxicity / safety to host cells [2]: quite toxic to host cells
toxicity / safety to host cells ([2]; listed as disodium EDTA): highly toxic to healthy cells

[Cl-].[Cl-].[Mg+2] [MgCl2]
concentration of second metal salt at which metallic Cu suspension will not appear [3]: greater than 0.63%

CC1(C)S[C@@H]2[C@H](NC(=O)[C@H](N)c3ccccc3)C(=O)N2[C@H]1C(=O)O [Ampicillin, reference compound]
inhibition of proliferation of microorganisms ([4]; 20 ppm Bactrim / 10 ppm Ampicillin, first 36 hours): slightly inhibited
appearance of water after 6 days [5, 13]: cloudy
fish outcome after 6 days [5, 13]: died and all of fishes died
appearance of water after 6 days [5, 14]: cloudy
fish outcome after 6 days [5, 14]: died and all of fishes died

[Cl-].[Cl-].[Zn+2] [ZnCl2]
concentration in culture medium at which microorganisms multiply strongly [4]: 12 ppm
appearance of symptoms (itchy throat/sore throat/cough/runny nose/body aches/slight fever/headache) ([6]; 2 ml of 0.4% ZnCl2 solution, 120 seconds): appear after a few minutes to a few hours
ZnCl2 concentration above which Zn-blood suspension begins to appear ([7]; 0.01% blood): above 1.5 ppm
ZnCl2 concentration at which suspension appears abundantly ([7]; 0.01% blood): 2 ppm
volume of 0.1% ZnCl2 solution at which Zn-blood complex suspension begins to appear ([7]; 100 ml of 0.9% NaCl with 1% blood): 1.4 mL

EDTA Na
time to death of fish [2]: ≤ 24 h

[Cl][Fe]([Cl])[Cl] [FeCl3]
concentration of second metal salt at which metallic Cu suspension will not appear [3]: greater than 0.2%
volume that completely dissolves Zn-blood complex suspension ([7]; 0.1% solution): 6 mL

O=C([O-])CCC(=O)[O-].[Na+].[Na+] [succinate Na, Na succinate]
concentration in culture medium at which microorganisms multiply strongly [4]: 80 ppm

triethylenetetramine gluconate
amount needed to completely dissolve Zn-blood complex suspension, compared with lysine phosphate/lysine chloride/arginine phosphate/arginine chloride [7]: tens to hundreds of times lower

CN(C)C1CSSC1 [Nereistoxin]
time to death of fish, toxin alone ([2]; in vivo): 30 min

pentaethylenehexamine diethylenetriaminepentaacetate
amount needed to completely dissolve Zn-blood complex suspension, compared with lysine phosphate/lysine chloride/arginine phosphate/arginine chloride [7]: tens to hundreds of times lower

O=c1oc2ccccc2c(O)c1C1CC(c2ccc(OCc3ccc(C(F)(F)F)cc3)cc2)Cc2ccccc21 (stereo not shown) [flocoumafen, reference compound]
time to death of fish, toxin alone ([2]; 1.25 ppm flocoumafen / 0.3 ppm Bromadiolone / 0.2 ppm Methylamine Avermectin): 2160 min
time to death of all mice [8]: about 2 days

triethylenetetramine ascorbate
disappearance of ZnCl2-induced symptoms [6]: gradually disappear after a few hours

O=C([O-])CC(O)C(=O)[O-].[Na+].[Na+] (stereo not shown) [malate Na, Na malate]
concentration in culture medium at which microorganisms multiply strongly [4]: 80 ppm

O=C(O)CN(CCN(CC(=O)O)CC(=O)O)CC(=O)O.[Mg] [Mg EDTA, Ethylenediaminetetraacetic acid magnesium]
survival of fish in CuCl2 with chelator [9]: will not die after several weeks
state of chickens after 12 hours [10]: stopped the lethargic state and they returned to eating normally
volume that completely dissolves Zn-blood complex suspension ([7]; 0.1% solution): 2 mL
amount needed to completely dissolve Zn-blood complex suspension, compared with lysine phosphate/lysine chloride/arginine phosphate/arginine chloride [7]: tens to hundreds of times lower
appearance of water after 6 days [5, 13]: clear; also recorded: transparent
fish outcome after 6 days [5, 13]: lived; also recorded: did not die
time after which fish did not die ([2]; 800 ppm EDTA Cu / 3000 ppm EDTA Mg / 12000 ppm EDTA Ca): ≥ 10 days
survival of fish ([2]; 2000 ppm triethylenetetramine diethylnenepentaacetate / 3000 ppm Mg EDTA / 2000 ppm Cu EDTA / 12000 ppm Ca EDTA, mixtures at concentrations in label): lived for many days
appearance of metallic Cu suspension [1]: metallic Cu suspension will not appear

NCCNCCNCCN [triethylenetetramine, Triethylenetetramine, reference compound]
appearance of metallic Cu suspension [1]: metallic Cu suspension will not appear

Diethylenetriaminepentaacetic acid calcium [Ca DTPA]
survival of fish in CuCl2 with chelator [9]: will not die after several weeks
toxicity / safety to host cells [2]: highly safe

O=C([O-])CN(CCN(CC(=O)O)CC(=O)O)CC(=O)[O-].[K+].[K+] [EDTA dipotassium]
toxicity / safety to host cells [2]: toxic to host cells

arginine glutamate
recovery of sweet taste [11]: fully recovered
volume that completely dissolves Zn-blood complex suspension ([7]; 10% solution): 1.0 mL
amount used to sharply reduce the voltage, compared with EDTA Mg/triethylenetetramine glutamate/triethylenetetramine diethylenetriaminepentaacetate [12]: dozens of times greater

triethylenetetramine glutamate
recovery of sweet taste [11]: fully recovered
disappearance of ZnCl2-induced symptoms [6]: gradually disappear after a few hours
appearance of metallic Cu suspension [1]: metallic Cu suspension will not appear

tetraethylenepentamine diethylenetriaminepentaacetate
amount needed to completely dissolve Zn-blood complex suspension, compared with lysine phosphate/lysine chloride/arginine phosphate/arginine chloride [7]: tens to hundreds of times lower

[Ca+2].[Cl-].[Cl-] [CaCl2]
concentration of second metal salt at which metallic Cu suspension will not appear [3]: greater than 0.65%

O=C([O-])[C@H](O)[C@@H](O)[C@H](O)[C@H](O)CO.O=C([O-])[C@H](O)[C@@H](O)[C@H](O)[C@H](O)CO.[Zn+2] [Zn gluconate]
sweet taste sensation after Zn ([11]; chewing and sucking 15 mg tablet, 120 seconds): completely lost

arginine ascorbate
volume that completely dissolves Zn-blood complex suspension ([7]; concentration of solution not given): 0.7 mL

O=C([O-])c1cc(O)c(O)c(O)c1.[Na+] [Na gallate]
concentration in culture medium at which microorganisms multiply strongly [4]: 5 ppm

NCCCC[C@H](N)C(=O)O.O=P(O)(O)O [lysine phosphate, reference compound]
survival of fish in CuCl2 with chelator [9]: will not die after several weeks

NCCCC[C@H](N)C(=O)O [lysine, reference compound]
appearance of metallic Cu suspension [1]: metallic Cu suspension will not appear

[Cl][Cu][Cl] [CuCl2]
death of fish in CuCl2 ([2]; 0.4 ppm CuCl2): dying after a few hours
appearance of metallic Cu suspension [1]: metallic Cu suspension will appear

N=C(N)NCCC[C@H](N)C(=O)O.O=P(O)(O)O [arginine phosphate]
survival of fish in CuCl2 with chelator [9]: will not die after several weeks
volume that completely dissolves Zn-blood complex suspension ([7]; 10% solution): 2 mL
units of [Zn ions/other transition metal ions] held by one unit of chelator ([7]; synthetic: upper end printed 'more than 200 units'): one unit (or few units)
amount used to sharply reduce the voltage, compared with EDTA Mg/triethylenetetramine glutamate/triethylenetetramine diethylenetriaminepentaacetate [12]: dozens of times greater

Diethylenetriaminepentaacetic acid magnesium [Mg DTPA]
survival of fish in CuCl2 with chelator [9]: will not die after several weeks
appearance of metallic Cu suspension [1]: metallic Cu suspension will not appear

Na tannate Na
concentration in culture medium at which microorganisms multiply strongly [4]: 30 ppm

O=C([O-])CC(O)(CC(=O)[O-])C(=O)[O-].[Na+].[Na+].[Na+] [citrate Na, Na citrate]
concentration in culture medium at which microorganisms multiply strongly [4]: 80 ppm
